Results taken from patent publication US20250188069A1, “COMPOUNDS AND METHODS FOR DEGRADING CASEIN KINASE 1 ALPHA” (PIN THERAPEUTICS, INC., priority 2022, published 2025).
pIC50: −log10 of the molar value. Where a name gives a salt, the structure may show the parent alone. Read-outs that look alike come from different tables or passages of the source.

Assays:
MV-4-11 cells = test: AML cell viability assay (RealTime-Glo); type: cell-based; settings: Homo sapiens, read-out: Cell viability classification
CK1α = CK1α (Homo sapiens, UniProt P48729+Q96SW2); test: CK1α degradation, flow cytometry in MV4-11 cells; type: cell-based; design: CK1α levels were determined in MV-4-11 cells using Jess (Protein Simple); host or cells: MV-4-11; settings: % reduction of CK1α compared to DMSO, MV4-11 cells at 316 nM for 16 hours, read-out: CK1α degradation classification
Experimental: MV-4-11 cells were obtained from ATCC and grown in IMDM supplemented with 10% FBS. The cells were maintained at 37° C. under 5% CO2.
Compounds of the present disclosure were added to cells (final DMSO concentration of 0.5%) and incubated for 16 hours. CK1α level was determined in MV4-11 cells using flow cytometry (Luminex, Guava EasyCyte Plus). Briefly, cells were prepared with sequential 10% formalin and 70% methanol fixation. […] GuavaSoft Incyte software was used to analyse the flow cytometry data. Protein levels relative to DMSO are calculated for CK1α.
The efficacy of CK1α degradation of other part of compounds of the present disclosure was determined by treating MV4-11 cells at […] (Final DMSO concentration of 0.5%) for 16 hours. Protein levels relative to DMSO are calculated for CK1α.
Protein levels relative to DMSO are calculated for CK1α.

[1] = MV4-11, IC50 class, MV-4-11 cells, RealTime-Glo after 44 hrs of treatment (TABLE 3)

CK1α, sequence (P48729 whole entry): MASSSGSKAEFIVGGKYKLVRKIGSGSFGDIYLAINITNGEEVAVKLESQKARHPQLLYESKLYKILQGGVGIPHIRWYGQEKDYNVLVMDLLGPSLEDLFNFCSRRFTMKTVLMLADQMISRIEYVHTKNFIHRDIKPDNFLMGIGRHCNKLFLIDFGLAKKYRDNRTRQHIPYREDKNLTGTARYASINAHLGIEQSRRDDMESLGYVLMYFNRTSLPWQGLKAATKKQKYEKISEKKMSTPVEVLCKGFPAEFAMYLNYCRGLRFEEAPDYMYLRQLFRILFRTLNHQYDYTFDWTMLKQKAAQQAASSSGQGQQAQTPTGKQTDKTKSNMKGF
CK1α, sequence (Q96SW2 whole entry): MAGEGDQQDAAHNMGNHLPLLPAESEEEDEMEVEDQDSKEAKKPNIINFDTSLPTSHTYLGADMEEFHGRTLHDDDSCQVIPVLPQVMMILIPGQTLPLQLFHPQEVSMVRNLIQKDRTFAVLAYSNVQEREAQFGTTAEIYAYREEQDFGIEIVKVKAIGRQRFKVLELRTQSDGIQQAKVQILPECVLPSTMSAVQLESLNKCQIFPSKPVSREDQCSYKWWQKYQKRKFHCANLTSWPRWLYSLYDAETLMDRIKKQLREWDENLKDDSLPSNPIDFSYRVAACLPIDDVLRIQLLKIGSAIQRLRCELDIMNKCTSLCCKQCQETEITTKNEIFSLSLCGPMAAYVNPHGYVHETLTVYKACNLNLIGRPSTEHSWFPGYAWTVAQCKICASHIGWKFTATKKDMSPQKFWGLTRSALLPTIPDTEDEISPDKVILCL
CK1α, sequence (Q16531 whole entry partner): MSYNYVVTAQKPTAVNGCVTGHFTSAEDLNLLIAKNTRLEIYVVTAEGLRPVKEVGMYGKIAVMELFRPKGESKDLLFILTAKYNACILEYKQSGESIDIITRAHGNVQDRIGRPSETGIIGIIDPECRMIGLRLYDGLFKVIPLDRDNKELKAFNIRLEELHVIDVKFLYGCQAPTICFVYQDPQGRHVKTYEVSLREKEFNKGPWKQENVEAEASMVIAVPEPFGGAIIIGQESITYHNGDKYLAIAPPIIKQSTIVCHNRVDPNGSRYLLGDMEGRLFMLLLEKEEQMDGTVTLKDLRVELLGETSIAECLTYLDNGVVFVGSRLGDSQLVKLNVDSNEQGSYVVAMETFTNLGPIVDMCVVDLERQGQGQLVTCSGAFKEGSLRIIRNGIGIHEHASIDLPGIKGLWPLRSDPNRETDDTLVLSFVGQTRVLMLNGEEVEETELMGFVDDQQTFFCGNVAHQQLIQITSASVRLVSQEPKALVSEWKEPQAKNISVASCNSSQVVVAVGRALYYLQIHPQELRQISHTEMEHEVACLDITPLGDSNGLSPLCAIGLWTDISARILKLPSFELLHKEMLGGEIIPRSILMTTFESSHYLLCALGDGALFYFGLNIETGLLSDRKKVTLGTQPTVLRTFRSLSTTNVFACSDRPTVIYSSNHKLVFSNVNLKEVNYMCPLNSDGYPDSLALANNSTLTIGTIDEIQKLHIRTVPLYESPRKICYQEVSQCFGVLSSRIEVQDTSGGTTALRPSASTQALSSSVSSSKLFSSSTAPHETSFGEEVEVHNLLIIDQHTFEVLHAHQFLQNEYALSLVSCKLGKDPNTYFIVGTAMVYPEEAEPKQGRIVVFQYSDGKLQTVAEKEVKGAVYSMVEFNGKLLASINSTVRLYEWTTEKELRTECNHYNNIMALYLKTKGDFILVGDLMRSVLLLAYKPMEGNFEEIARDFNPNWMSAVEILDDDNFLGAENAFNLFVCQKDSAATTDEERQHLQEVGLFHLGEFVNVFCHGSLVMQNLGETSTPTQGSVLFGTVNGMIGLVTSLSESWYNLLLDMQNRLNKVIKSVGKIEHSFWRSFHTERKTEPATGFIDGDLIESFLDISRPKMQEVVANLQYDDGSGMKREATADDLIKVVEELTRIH

SMILES | pIC50 (MV-4-11 cells; [1]) | Dmax at 0.316 µM (CK1α) [%] | pIC50 (MV-4-11 cells; MV4-11, 44 h)
NC[C@H]1CC[C@@H](N(CCC2CC2)c2cccc3c2CN(C2CCC(=O)NC2=O)C3=O)C1 (stereo partly drawn) [Compound 326A, 3-(4-(((1R,3S)-3-(aminomethyl)cyclopentyl)(2-cyclopropylethyl)amino)-1-oxoisoindolin-2-yl)piperidine-2,6-dione, HCl] | > 7.00 | > 75 | 
CCCCCN(c1cccc2c1CN(C1CCC(=O)NC1=O)C2=O)[C@H]1CCC[C@H](CN)C1 (stereo partly drawn) [Compound 329, 3-(4-(((1S,3S)-3-(aminomethyl)cyclohexyl)(pentyl)amino)-1-oxoisoindolin-2-yl)piperidine-2,6-dione, HCl] | 6.00 to 7.00 | 50 to 75 | 
CCCCCN(c1cccc2c1CN(C1CCC(=O)NC1=O)C2=O)[C@H]1CCC[C@@H](CN)C1 (stereo partly drawn) [Compound 330, 3-(4-(((1S,3R)-3-(aminomethyl)cyclohexyl)(pentyl)amino)-1-oxoisoindolin-2-yl)piperidine-2,6-dione, HCl] | > 7.00 | > 75 | 
O=C1CCC(N2Cc3c(cccc3N(CCCC(F)(F)F)[C@H]3CC[C@H](NC4CC(F)(F)C4)CC3)C2=O)C(=O)N1 (some centres unmarked) [Compound 512, 3-(4-(((1r,4r)-4-((3,3-difluorocyclobutyl)amino)cyclohexyl)(4,4,4-trifluorobutyl)amino)-1-oxoisoindolin-2-yl)piperidine-2,6-dione] | 6.00 to 7.00 | 50 to 75 | 
O=C1CCC(N2Cc3c(cccc3N(CCCC(F)(F)F)[C@H]3CC[C@H](NCCC(F)(F)F)CC3)C2=O)C(=O)N1 (some centres unmarked) [Compound 513, 3-(1-oxo-4-((4,4,4-trifluorobutyl)((1r,4r)-4-((3,3,3-trifluoropropyl)amino)cyclohexyl)amino)isoindolin-2-yl)piperidine-2,6-dione] | 6.00 to 7.00 | > 75 | 
O=C1CCC(N2Cc3c(cccc3N(CCCC(F)(F)F)[C@H]3CC[C@H](NC4COC4)CC3)C2=O)C(=O)N1 (some centres unmarked) [Compound 514, 3-(1-oxo-4-{[(1r,4r)-4-(oxetan-3-ylamino)cyclohexyl](4,4,4-trifluorobutyl)amino}-3H-isoindol-2-yl)piperidine-2,6-dione] | 6.00 to 7.00 | 50 to 75 | 
O=C1CCC(N2Cc3c(cccc3N(CCC3CC3)[C@H]3CC[C@H](NC4CC(F)(F)C4)CC3)C2=O)C(=O)N1 (some centres unmarked) [Compound 515, 3-(4-((2-cyclopropylethyl)((1r,4r)-4-((3,3-difluorocyclobutyl)amino)cyclohexyl)amino)-1-oxoisoindolin-2-yl)piperidine-2,6-dione formate] | < 6.00 | 50 to 75 | 
O=C1CCC(N2Cc3c(cccc3N(CCC3CC3)[C@H]3CC[C@@H](NC4CC(F)(F)C4)CC3)C2=O)C(=O)N1 (some centres unmarked) [Compound 515A, 3-(4-((2-cyclopropylethyl)((1s,4s)-4-((3,3-difluorocyclobutyl)amino)cyclohexyl)amino)-1-oxoisoindolin-2-yl)piperidine-2,6-dione formate] | 6.00 to 7.00 | 50 to 75 | 
O=C1CCC(N2Cc3c(cccc3N(CCC3CC3)[C@H]3CC[C@H](NCCC(F)(F)F)CC3)C2=O)C(=O)N1 (some centres unmarked) [Compound 516, 3-{4-[(2-cyclopropylethyl)[(1r,4r)-4-[(3,3,3-trifluoropropyl)amino]cyclohexyl]amino]-1-oxo-3H-isoindol-2-yl}piperidine-2,6-dione] | > 7.00 | > 75 | 
O=C1CCC(N2Cc3c(cccc3N(CCC3CC3)[C@H]3CC[C@H](NC4COC4)CC3)C2=O)C(=O)N1 (some centres unmarked) [Compound 517, 3-(4-((2-cyclopropylethyl)((1r,4r)-4-(oxetan-3-ylamino)cyclohexyl)amino)-1-oxoisoindolin-2-yl)piperidine-2,6-dione] | > 7.00 | > 75 | 
NCC(F)(F)CCN(CCC1CC1)c1cccc2c1CN(C1CCC(=O)NC1=O)C2=O (centres unmarked) [Compound 518, 3-(4-((4-amino-3,3-difluorobutyl)(2-cyclopropylethyl)amino)-1-oxoisoindolin-2-yl)piperidine-2,6-dione] | 6.00 to 7.00 | > 75 | 
NCC(CCN(CCC1CC1)c1cccc2c1CN(C1CCC(=O)NC1=O)C2=O)C(F)(F)F (centres unmarked) [Compound 519, 3-(4-{[4-amino-3-(trifluoromethyl)butyl](2-cyclopropylethyl)amino}-1-oxo-3H-isoindol-2-yl)piperidine-2,6-dione] |  | 50 to 75 | 6.00 to 7.00
N[C@@H]1CC[C@@H](N(CCC2CC2)c2cccc3c2CN(C2CCC(=O)NC2=O)C3=O)C[C@H]1F (stereo partly drawn) [Compound 521, 3-(4-(((1R,3R,4R)-4-amino-3-fluorocyclohexyl)(2-cyclopropylethyl)amino)-1-oxoisoindolin-2-yl)piperidine-2,6-dione; formic acid] | > 7.00 | > 75 | 
NC[C@H]1CC[C@@H](N(CCC2CC2)c2cccc3c2CN(C2CCC(=O)NC2=O)C3=O)CO1 (stereo partly drawn) [Compound 522, 3-(4-{[(3R,6R)-6-(aminomethyl)oxan-3-yl](2-cyclopropylethyl)amino}-1-oxo-3H-isoindol-2-yl)piperidine-2,6-dione] | > 7.00 | > 75 | 
NC[C@]1(O)CC[C@H](N(CCC2CC2)c2cccc3c2CN(C2CCC(=O)NC2=O)C3=O)CC1 (some centres unmarked) [Compound 523, 3-(4-(((1r,4r)-4-(aminomethyl)-4-hydroxycyclohexyl)(2-cyclopropylethyl)amino)-1-oxoisoindolin-2-yl)piperidine-2,6-dione] | 6.00 to 7.00 | 50 to 75 | 
O=C1CCC(N2Cc3c(cccc3N(CCC3CC3)[C@H]3CC[C@H](NC(CF)CF)CC3)C2=O)C(=O)N1 (some centres unmarked) [Compound 540, 3-{4-[(2-cyclopropylethyl)[(1r,4r)-4-[(1,3-difluoropropan-2-yl)amino]cyclohexyl]amino]-1-oxo-3H-isoindol-2-yl}piperidine-2,6-dione] |  | 50 to 75 | 6.00 to 7.00

Continued, in another order:

pIC50 (MV-4-11 cells; [1]) | Dmax at 0.316 µM (CK1α) [%] | SMILES | pIC50 (MV-4-11 cells; MV4-11, 44 h)
< 6.00 | < 50 | NC[C@]1(O)CC[C@H](N(CCCC(F)(F)F)c2cccc3c2CN(C2CCC(=O)NC2=O)C3=O)CC1 (some centres unmarked) [Compound 530, 3-(4-(((1r,4r)-4-(aminomethyl)-4-hydroxycyclohexyl)(4,4,4-trifluorobutyl)amino)-1-oxoisoindolin-2-yl)piperidine-2,6-dione] | 
> 7.00 | > 75 | O=C1CCC(N2Cc3c(cccc3N(CC3CC3)[C@H]3CC[C@H](NC4CC(F)(F)C4)CC3)C2=O)C(=O)N1 (some centres unmarked) [Compound 532, 3-(4-((cyclopropylmethyl)((lr,4r)-4-((3,3-difluorocyclobutyl)amino)cyclohexyl)amino)-1-oxoisoindolin-2-yl)piperidine-2,6-dione] | 
> 7.00 | > 75 | O=C1CCC(N2Cc3c(cccc3N(CC3CC3)[C@H]3CC[C@H](NCCC(F)(F)F)CC3)C2=O)C(=O)N1 (some centres unmarked) [Compound 533, 3-(4-((cyclopropylmethyl)((1r,4r)-4-((3,3,3-trifluoropropyl)amino)cyclohexyl)amino)-1-oxoisoindolin-2-yl)piperidine-2,6-dione] | 
> 7.00 | > 75 | O=C1CCC(N2Cc3c(cccc3N(CC3CC3)[C@H]3CC[C@H](NC4COC4)CC3)C2=O)C(=O)N1 (some centres unmarked) [Compound 534, 3-(4-((cyclopropylmethyl)((1r,4r)-4-(oxetan-3-ylamino)cyclohexyl)amino)-1-oxoisoindolin-2-yl)piperidine-2,6-dione] | 
> 7.00 | 50 to 75 | N[C@@H]1CC[C@@H](N(CC2CC2)c2cccc3c2CN(C2CCC(=O)NC2=O)C3=O)C[C@H]1F (stereo partly drawn) [Compound 535, 3-(4-(((1R,3R,4R)-4-amino-3-fluorocyclohexyl)(cyclopropylmethyl)amino)-1-oxoisoindolin-2-yl)piperidine-2,6-dione; formic acid] | 
6.00 to 7.00 | < 50 | NC[C@]1(O)CC[C@H](N(CC2CC2)c2cccc3c2CN(C2CCC(=O)NC2=O)C3=O)CC1 (some centres unmarked) [Compound 536, 3-(4-(((1r,4r)-4-(aminomethyl)-4-hydroxycyclohexyl)(cyclopropylmethyl)amino)-1-oxoisoindolin-2-yl)piperidine-2,6-dione] | 
6.00 to 7.00 | 50 to 75 | O=C1CCC(N2Cc3c(cccc3N(CCC3CC3)[C@H]3CC[C@H](NCC(F)F)CC3)C2=O)C(=O)N1 (some centres unmarked) [Compound 539, 3-{4-[(2-cyclopropylethyl)[(1s,4s)-4-[(2,2-difluoroethyl)amino]cyclohexyl]amino]-1-oxo-3H-isoindol-2-yl}piperidine-2,6-dione] | 
> 7.00 | > 75 | O=C1CCC(N2Cc3c(cccc3N(CCC3CC3)[C@H]3CC[C@@H](NCC(F)F)CC3)C2=O)C(=O)N1 (some centres unmarked) [Compound 539A, 3-{4-[(2-cyclopropylethyl)[(1r,4r)-4-[(2,2-difluoroethyl)amino]cyclohexyl]amino]-1-oxo-3H-isoindol-2-yl}piperidine-2,6-dione] | 
> 7.00 | > 75 | COC(C)(C)CN[C@H]1CC[C@H](N(CCC2CC2)c2cccc3c2CN(C2CCC(=O)NC2=O)C3=O)CC1 (some centres unmarked) [Compound 541, 3-(4-((2-cyclopropylethyl)((1r,4r)-4-((2-methoxy-2-methylpropyl)amino)cyclohexyl)amino)-1-oxoisoindolin-2-yl)piperidine-2,6-dione] | 
